Source: patent publication US20070128193A1, “GLP-1 agonists, compositions, methods and uses” (priority 2004, published 2007)
Where no end group is shown, it is not given here.

Tests used:
[1] = administered subcutaneously; cited from earlier work
[2] = system: RINm cells; assay: Insulin secretion in RINm cells; assay type: cell-based; details: peptides 0-5 nM; mimetibodies 5 or 50 nM
Description: GLP-1 mimetibody causes insulin secretion in RINm cells. To test the effect of GLP-1 mimetibody in insulin secretion, RINm cells were treated with increasing concentrations of GLP-1 (7-36) peptide (0-5 nM) (FIG. 6A), exendin-4 peptide (0-5 nM) (FIG. 6A), or various GLP-1 mimetibodies (5 or 50 nM) and the amount of insulin secreted was measured via ELISA. All GLP-1 mimetibodys tested had activities in stimulating insulin secretion in RINm cells.

[3] = system: control HEK293 cells; assay: FACS binding assay, control HEK293 cells; details: 20 nM, 2 hours at 4° C.
[4] = system: db/db mice; assay: Fasting blood glucose in db/db mice; assay type: in vivo
Description: GLP-1 mimetibody lowers glucose level in db/db mice. […] Blood glucose was monitored 0.5, 1, 2, 3, and 4 hours post-dosing. […] In addition, consistent with the mechanism of action for GLP-1, the maximum glucose lowering effect achieved at 0.19 nmol was not enhanced by a higher dose of the GLP-1 mimetibody (1.9 nmol). The maximum glucose lowering effect maintained blood glucose values within the normal range.

[5] = biological target: T1, GLP-1R (Homo sapiens, UniProt P43220); assay: FACS binding assay, HEK293 cells over-expressing GLP-1R; details: 20 nM, 2 hours at 4° C.
T1 construct: expressed in transfected cells; host or cells: HEK293
T1 sequence (P43220 24-463, species assumed): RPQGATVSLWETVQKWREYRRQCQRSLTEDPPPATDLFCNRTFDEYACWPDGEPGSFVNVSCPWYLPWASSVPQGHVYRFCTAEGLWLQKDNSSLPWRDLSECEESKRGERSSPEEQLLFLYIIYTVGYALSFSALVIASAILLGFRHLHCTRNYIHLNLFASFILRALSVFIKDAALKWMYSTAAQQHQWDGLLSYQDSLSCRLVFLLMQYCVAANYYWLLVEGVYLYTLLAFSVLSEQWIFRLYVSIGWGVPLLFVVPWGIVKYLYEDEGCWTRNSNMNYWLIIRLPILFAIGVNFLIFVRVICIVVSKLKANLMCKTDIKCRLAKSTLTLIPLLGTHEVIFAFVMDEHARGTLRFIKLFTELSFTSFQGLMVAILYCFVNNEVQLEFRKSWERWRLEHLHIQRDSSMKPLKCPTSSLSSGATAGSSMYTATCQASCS
Description: FACS Binding Assay. The activity of GLP-1 mimetibody was tested in an in vitro FACS binding assay. To determine whether the GLP-1 mimetibody binds GLP-1R, HEK293 cells (1×10^6 cells) over-expressing GLP-1R were incubated with GLP-1 mimetibody (20 nM) for 2 hours at 4° C. The cells were washed, and a fluorescently labeled secondary detection antibody (1 μg/mL goat anti-human IgG, Fc gamma specific) was added for 30 minutes at 4° C. The fluorescence intensity of the cells was monitored via flow cytometry.

[6] = biological target: T2, DPP-IV (Homo sapiens, UniProt P27487); assay: DPP-IV cleavage assay; assay type: in vitro ADME; details: 1.2 nM, DPP-IV 1 μg/mL, room temperature, 0-40 minutes
T2 construct: purchased R&D Systems
T2 sequence (P27487 whole entry, species assumed): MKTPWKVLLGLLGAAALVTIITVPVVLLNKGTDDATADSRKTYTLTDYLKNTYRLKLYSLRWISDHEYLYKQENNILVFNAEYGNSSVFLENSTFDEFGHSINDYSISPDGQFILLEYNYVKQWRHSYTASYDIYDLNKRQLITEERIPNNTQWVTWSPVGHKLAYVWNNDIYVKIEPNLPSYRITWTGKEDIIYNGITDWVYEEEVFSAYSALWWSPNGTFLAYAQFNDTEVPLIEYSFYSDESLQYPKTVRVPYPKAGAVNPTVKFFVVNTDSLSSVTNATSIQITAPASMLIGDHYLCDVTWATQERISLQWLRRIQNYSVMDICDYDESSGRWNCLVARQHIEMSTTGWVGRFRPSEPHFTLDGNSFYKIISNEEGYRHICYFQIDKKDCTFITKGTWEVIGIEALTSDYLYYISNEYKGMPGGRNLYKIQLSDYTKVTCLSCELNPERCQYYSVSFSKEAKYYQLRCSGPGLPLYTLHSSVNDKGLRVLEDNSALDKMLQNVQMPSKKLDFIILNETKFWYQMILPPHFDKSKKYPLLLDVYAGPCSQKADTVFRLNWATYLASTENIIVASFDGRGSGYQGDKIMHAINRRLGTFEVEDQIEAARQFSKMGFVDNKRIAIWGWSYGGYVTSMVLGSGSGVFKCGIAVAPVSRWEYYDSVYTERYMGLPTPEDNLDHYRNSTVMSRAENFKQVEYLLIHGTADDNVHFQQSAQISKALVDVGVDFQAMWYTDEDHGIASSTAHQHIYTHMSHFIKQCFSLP
Description: DPP-IV cleavage assay. Since GLP-1 is rapidly inactivated by DPP-IV, an in vitro assay was established to quantitate intact (i.e. uncleaved) GLP-1 mimetibody. Briefly, GLP-1 mimetibody or peptide (1.2 nM) was incubated at room temperature with DPP-IV (1 μg/mL, R&D Systems). After various times (0, 5, 10, 15, 20, 30, 40 minutes), a DPP-IV inhibitor (100 μM, Linco) was added to quench the reaction. The amount of intact GLP-1 mimetibody or peptide was measured using the GLP-1 Active ELISA (Linco) and the GLP-1 mimetibody or peptides for the respective standard curves.

[7] = Human serum stability assay; assay type: in vitro ADME; details: 30 nM, 37° C.
Description: Human Serum stability assay. The stability of the GLP-1 mimetibody in serum was also measured to ensure that other serum proteases were not able to cleave and inactivate the GLP-1 mimetibody. Briefly, GLP1 peptide or the GLP1 mimetibody (30 nM) was incubated in human serum at 37° C. After various times, samples were evaluated to determine the amount of intact peptide or mimetibody. The reactions were quenched with a DPP-IV inhibitor (100 μM, Linco), and the samples were analyzed using the GLP-1 Active ELISA from Linco.

GLP-1 (7-36) amide: GLP-1 (7-36) amide
time action [1]: about 50 minutes

GLP-1 (7-36) peptide: wild-type GLP-1 (7-36) peptide (HAEGTFTSDVSSYLEGQAAKEFIAWLVKGR; ends and bridges not checked; UniProt P01275 98-127, looked up, fragment)
stimulation of insulin secretion in RINm cells [2]: stimulates insulin release in RINm cells

GLP-1 mimetibody: GLP-1 peptide (7-36), Gly-Ser linker, J region, IgG1 hinge, CH2 and CH3 construct (SEQ ID NO:2)
binding to control HEK293 cells (FACS) [3]: not to control HEK293 cells
lowering of fasting blood glucose compared to control animals ([4]; doses ranging from 0.019 to 1.9 nmol): effective in lowering the fasting blood glucose
dose at which maximum glucose lowering effect was achieved ([4]; not enhanced by 1.9 nmol): 0.19 nmol
binding to HEK293 cells over-expressing GLP-1R (FACS) [5]: binds to HEK293 cells over-expressing GLP-1R
resistance to cleavage by DPP-IV relative to the GLP-1 peptide [6]: significantly more resistant to cleavage by DPP-IV
remained intact in human serum after 24 hours [7]: > 90%

GLP-1 peptide: GLP-1 peptide used as comparator [reference compound]
blood glucose over 4 hours post-dosing ([4]; db/db mice fasted two hours, intravenous, mimetibody dose 100-fold lower than peptide dose): lowered blood glucose at 30 minutes, but by 60 minutes, the blood glucose began to increase again

exendin-4 peptide: exendin-4 peptide, positive control
stimulation of insulin secretion in RINm cells [2]: stimulates insulin release in RINm cells
